Counter-ions that a name gives are not always drawn. Like-named read-outs stand apart in the source and are kept apart here.
Experiments:
human GSK3α = biological target: T1, human GSK3α (Homo sapiens, UniProt P49840); experiment: In vitro enzymatic activity assay, GSK3α; type: biochemical; conditions: 1.0 mM ATP, 1.0 μM peptide substrate, 120 min, 25° C
T1 construct: Full length human GSK3α or GSK3B expressed as N-terminal GST fusion proteins; GST (N); purchased Carna Biosciences (Japan); host or cells: baculovirus host

GSK3A = biological target: T2, GSK3A (Homo sapiens, UniProt P49840); experiment: NanoBRET cellular target engagement assay, Nanoluc-GSK3A in HEK293 cells; type: cell-based; conditions: NanoBRET GSK3α IC50, HEK293 cells, tracer K-8, 2 hours, 37° C
T2 construct: expressed in transfected cells

GSK3B [1] = biological target: T3, GSK3B (Homo sapiens, UniProt P49841); experiment: NanoBRET cellular target engagement assay, Nanoluc-GSK3B in HEK293 cells; type: cell-based; parameters: expressed in transfected cells; conditions: NanoBRET GSK3β IC50, HEK293 cells, tracer K-8, 2 hours, 37° C
GSK3B [2] = biological target: T3, GSK3B; experiment: In vitro enzymatic activity assay, GSK3β; type: biochemical; parameters: Full length human GSK3α or GSK3B expressed as N-terminal GST fusion proteins; GST (N); purchased Carna Biosciences (Japan); host or cells: baculovirus host; conditions: 1.0 mM ATP, 1.0 μM peptide substrate, 120 min, 25° C

T1 sequence (P49840 whole entry, the tested form may be a part): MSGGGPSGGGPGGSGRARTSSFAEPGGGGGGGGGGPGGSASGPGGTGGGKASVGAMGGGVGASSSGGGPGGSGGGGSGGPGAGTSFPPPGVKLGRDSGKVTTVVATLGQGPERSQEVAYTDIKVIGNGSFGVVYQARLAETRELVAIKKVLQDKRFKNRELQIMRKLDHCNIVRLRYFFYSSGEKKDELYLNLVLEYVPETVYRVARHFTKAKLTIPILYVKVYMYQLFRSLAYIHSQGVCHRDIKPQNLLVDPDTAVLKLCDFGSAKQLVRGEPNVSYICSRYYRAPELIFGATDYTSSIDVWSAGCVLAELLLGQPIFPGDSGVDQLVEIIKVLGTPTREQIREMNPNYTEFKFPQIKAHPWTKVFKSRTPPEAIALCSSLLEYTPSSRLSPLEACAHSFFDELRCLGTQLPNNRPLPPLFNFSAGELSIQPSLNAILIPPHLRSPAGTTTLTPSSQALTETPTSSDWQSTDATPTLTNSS
T2 sequence (P49840 whole entry): as the sequence (P49840 whole entry, the tested form may be a part) above
T3 sequence (P49841 whole entry, the tested form may be a part): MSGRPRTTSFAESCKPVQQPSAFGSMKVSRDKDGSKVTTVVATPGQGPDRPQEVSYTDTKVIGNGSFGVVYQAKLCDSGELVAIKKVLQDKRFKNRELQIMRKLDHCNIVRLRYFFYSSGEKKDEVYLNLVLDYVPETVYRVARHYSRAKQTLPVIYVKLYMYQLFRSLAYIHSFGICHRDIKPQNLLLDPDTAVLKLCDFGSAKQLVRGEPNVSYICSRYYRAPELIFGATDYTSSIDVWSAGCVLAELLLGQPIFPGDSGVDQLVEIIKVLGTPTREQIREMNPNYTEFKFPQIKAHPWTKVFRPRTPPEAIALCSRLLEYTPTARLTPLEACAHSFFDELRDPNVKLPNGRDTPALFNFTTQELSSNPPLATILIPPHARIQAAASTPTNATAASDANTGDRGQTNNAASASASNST

| SMILES | IC50 (human GSK3α; read-out: Enzyme GSK3α (IC50)) | IC50 (GSK3A) | IC50 (GSK3B [1]) | IC50 (GSK3B [2]; read-out: Enzyme GSK3β (IC50)) | IC50 (human GSK3α; Enzyme GSK3α (IC50)) | IC50 (GSK3B [2]; Enzyme GSK3β (IC50)) |
| --- | --- | --- | --- | --- | --- | --- |
| COCc1cc(C)c(-n2cnc(N)c(C(=O)Nc3cncc([C@H]4CCCCN4)c3)c2=S)c(C)c1 [Example 163, (R)-4-amino-1-(4-(methoxymethyl)-2,6-dimethylphenyl)-N-(5-(piperidin-2-yl)pyridin-3-yl)-6-thioxo-1,6-dihydropyrimidine-5-carboxamide trifluoroacetate] | 5.6 nM | 2.8 nM | 205 nM | 250 nM |  |  |
| CCOc1cc(Cl)c(-n2cnc(N)c(C(=O)Nc3cncc(CNCCS(C)(=O)=O)c3)c2=O)c(Cl)c1 [Example 165, 4-amino-1-(2,6-dichloro-4-ethoxyphenyl)-N-(5-(((2-(methylsulfonyl)ethyl)amino)methyl)pyridin-3-yl)-6-oxo-1,6-dihydropyrimidine-5-carboxamide] | 10.8 nM | 9.3 nM | 1120 nM | 434 nM |  |  |
| CCC[C@@H](N)c1cncc(NC(=O)c2c(N)ncn(-c3c(C)cc(COC)cc3C)c2=O)c1 [Example 176, (R)-4-amino-N-(5-(1-aminobutyl)pyridin-3-yl)-1-(4-(methoxymethyl)-2,6-dimethylphenyl)-6-oxo-1,6-dihydropyrimidine-5-carboxamide] | 5.1 nM | 2.6 nM | 190 nM | 272 nM |  |  |
| COc1cc(Cl)c(-n2cnc(N)c(C(=O)Nc3cncc(C4(N)CCOCC4)c3)c2=O)c(Cl)c1 [Example 182, 4-amino-N-(5-(4-aminotetrahydro-2H-pyran-4-yl)pyridin-3-yl)-1-(2,6-dichloro-4-methoxyphenyl)-6-oxo-1,6-dihydropyrimidine-5-carboxamide] | 17.4 nM | 8.2 nM | 643 nM | 915 nM |  |  |
| Cc1cc(C(C)(F)F)cc(C)c1-n1cnc(N)c(C(=O)Nc2cncc([C@H]3CCCCN3)c2)c1=O [Example 186, (R)-4-amino-1-(4-(1,1-difluoroethyl)-2,6-dimethylphenyl)-6-oxo-N-(5-(piperidin-2-yl)pyridin-3-yl)-1,6-dihydropyrimidine-5-carboxamide] | 4.4 nM | 2.1 nM | 152 nM | 169 nM |  |  |
| COc1cc(Cl)c(-n2cnc(N)c(C(=O)Nc3cncc4c3CCC43CCCN3)c2=O)c(Cl)c1 (stereo not shown) [Example 192, 4-amino-1-(2,6-dichloro-4-methoxyphenyl)-N-(5,6-dihydrospiro[cyclopenta[c]pyridine-7,2′-pyrrolidin]-4-yl)-6-oxo-1,6-dihydropyrimidine-5-carboxamide] | 1.8 nM | 1.4 nM | 18.8 nM | 14.7 nM |  |  |
| Nc1ncn(-c2c(Cl)cc(OC3CC3)cc2Cl)c(=O)c1C(=O)Nc1cncc([C@@H]2CCCN2)c1 [Example 194, (S)-4-amino-1-(2,6-dichloro-4-cyclopropoxyphenyl)-6-oxo-N-(5-(pyrrolidin-2-yl)pyridin-3-yl)-1,6-dihydropyrimidine-5-carboxamide] | 6.2 nM | 5.1 nM | 330 nM | 302 nM |  |  |
| COC(=O)c1cc(Cl)c(-n2cnc(N)c(C(=O)Nc3cncc([C@@H]4CCCCN4)c3)c2=O)c(Cl)c1 [Example 196, methyl(S)-4-(4-amino-6-oxo-5-((5-(piperidin-2-yl)pyridin-3-yl)carbamoyl)pyrimidin-1 (6H)-yl)-3,5-dichlorobenzoate] | 6.6 nM | 4.2 nM | 242 nM | 400 nM |  |  |
| CCNCc1cncc(NC(=O)c2c(N)ncn(-c3c(Cl)cc(C(=O)OC)cc3Cl)c2=O)c1 [Example 198, methyl 4-(4-amino-5-((5-((ethylamino)methyl)pyridin-3-yl)carbamoyl)-6-oxopyrimidin-1 (6H)-yl)-3,5-dichlorobenzoate] | 5.6 nM | 3.7 nM | 209 nM | 332 nM |  |  |
| CCNCc1cncc(NC(=O)c2c(N)ncn(-c3c(Cl)cc(C(=O)OCC)cc3Cl)c2=O)c1 [Example 199, ethyl 4-(4-amino-5-((5-((ethylamino)methyl)pyridin-3-yl)carbamoyl)-6-oxopyrimidin-1 (6H)-yl)-3,5-dichlorobenzoate] | 3.3 nM | 2.4 nM | 118 nM | 203 nM |  |  |
| CCNCc1cncc(NC(=O)c2c(N)ncn(-c3c(Cl)cc(-c4cnco4)cc3Cl)c2=O)c1 [Example 200, 4-amino-1-(2,6-dichloro-4-(oxazol-5-yl)phenyl)-N-(5-((ethylamino)methyl)pyridin-3-yl)-6-oxo-1,6-dihydropyrimidine-5-carboxamide] | 14.4 nM | 7.6 nM | 451 nM | 813 nM |  |  |
| CCNCc1cncc(NC(=O)c2c(N)ncn(-c3c(Cl)cc(-c4ncco4)cc3Cl)c2=O)c1 [Example 201, 4-amino-1-(2,6-dichloro-4-(oxazol-2-yl)phenyl)-N-(5-((ethylamino)methyl)pyridin-3-yl)-6-oxo-1,6-dihydropyrimidine-5-carboxamide] | 13.7 nM | 7.4 nM | 430 nM | 608 nM |  |  |

More lines, now with the values ahead:

| IC50 (human GSK3α; read-out: Enzyme GSK3α (IC50)) | IC50 (GSK3A) | IC50 (GSK3B [1]) | IC50 (GSK3B [2]; read-out: Enzyme GSK3β (IC50)) | IC50 (human GSK3α; Enzyme GSK3α (IC50)) | IC50 (GSK3B [2]; Enzyme GSK3β (IC50)) | SMILES |
| --- | --- | --- | --- | --- | --- | --- |
| 29.4 nM | 9.7 nM | 1170 nM | 1850 nM |  |  | CNCCc1c(NC(=O)c2c(N)ncn(-c3c(C)cccc3Cl)c2=O)cccc1OC [Example 164, 4-amino-1-((S)-2-chloro-6-methylphenyl)-N-(3-methoxy-2-(2-(methylamino)ethyl)phenyl)-6-oxo-1,6-dihydropyrimidine-5-carboxamide] |
| 21.8 nM | 16.4 nM | 526 nM | 520 nM |  |  | NCc1cccc(NC(=O)c2c(N)ncn(-c3c(Cl)cccc3Cl)c2=O)c1OC(F)F [Example 170, 4-amino-N-(3-(aminomethyl)-2-(difluoromethoxy)phenyl)-1-(2,6-dichlorophenyl)-6-oxo-1,6-dihydropyrimidine-5-carboxamide trifluoroacetate] |
| 44.8 nM | 30.1 nM | 851 nM | 1280 nM |  |  | NCc1cccc(NC(=O)c2c(N)ncn(-c3c(Cl)cccc3Cl)c2=O)c1C(F)(F)F [Example 171, 4-amino-N-(3-(aminomethyl)-2-(trifluoromethyl)phenyl)-1-(2,6-dichlorophenyl)-6-oxo-1,6-dihydropyrimidine-5-carboxamide] |
|  | 1510 nM | 25000 nM |  | 1880 nM | 10000 nM | Nc1ncn(-c2c(O)cccc2Cl)c(=O)c1C(=O)Nc1cncc([C@@H]2CCCCN2)c1 [Example 173, (S)-4-amino-1-(2-chloro-6-hydroxyphenyl)-6-oxo-N-(5-(piperidin-2-yl)pyridin-3-yl)-1,6-dihydropyrimidine-5-carboxamide] |
| 3.7 nM | 3.3 nM | 179 nM | 257 nM |  |  | COc1cc(Cl)c(-n2cnc(N)c(C(=O)Nc3cncc(C4(N)CCC4)c3)c2=O)c(Cl)c1 [Example 179, 4-amino-N-(5-(1-aminocyclobutyl)pyridin-3-yl)-1-(2,6-dichloro-4-methoxyphenyl)-6-oxo-1,6-dihydropyrimidine-5-carboxamide] |
| 7.9 nM | 7 nM | 491 nM | 536 nM |  |  | COc1cc(Cl)c(-n2cnc(N)c(C(=O)Nc3cncc(C4(N)CC4)c3)c2=O)c(Cl)c1 [Example 181, 4-amino-N-(5-(1-aminocyclopropyl)pyridin-3-yl)-1-(2,6-dichloro-4-methoxyphenyl)-6-oxo-1,6-dihydropyrimidine-5-carboxamide] |
| 7.9 nM | 5 nM | 300 nM | 576 nM |  |  | CCOc1cc(Cl)c(-n2cnc(N)c(C(=O)Nc3cncc(C4(N)CCC4)c3)c2=O)c(Cl)c1 [Example 183, 4-amino-N-(5-(1-aminocyclobutyl)pyridin-3-yl)-1-(2,6-dichloro-4-ethoxyphenyl)-6-oxo-1,6-dihydropyrimidine-5-carboxamide] |
| 9.2 nM | 6.8 nM | 487 nM | 481 nM |  |  | Nc1ncn(-c2c(Cl)cc(OC(F)F)cc2Cl)c(=O)c1C(=O)Nc1cccc([C@@H]2CCCN2)c1 [Example 193, (S)-4-amino-1-(2,6-dichloro-4-(difluoromethoxy)phenyl)-6-oxo-N-(3-(pyrrolidin-2-yl)phenyl)-1,6-dihydropyrimidine-5-carboxamide] |
| 8.7 nM | 5.9 nM | 385 nM | 432 nM |  |  | CCNCc1cncc(NC(=O)c2c(N)ncn(-c3c(Cl)cc(CC(F)(F)F)cc3Cl)c2=O)c1 [Example 202, 4-amino-1-(2,6-dichloro-4-(2,2,2-trifluoroethyl)phenyl)-N-(5-((ethylamino)methyl)pyridin-3-yl)-6-oxo-1,6-dihydropyrimidine-5-carboxamide] |
| 8 nM | 3.7 nM | 293 nM | 318 nM |  |  | CCNCc1cncc(NC(=O)c2c(N)ncn(-c3c(Cl)cc(CC(F)F)cc3Cl)c2=O)c1 [Example 203, 4-amino-1-(2,6-dichloro-4-(2,2-difluoroethyl)phenyl)-N-(5-((ethylamino)methyl)pyridin-3-yl)-6-oxo-1,6-dihydropyrimidine-5-carboxamide] |
